# Measured values: patent publication EP0973746B1, “SUBSTITUTED 3-CYANO QUINOLINES” (Wyeth Holdings Corporation, priority 1997, dated 1998)
# Like-named read-outs stand apart in the source and are kept apart here.
# Assays:
# SW620 = experiment: Inhibition of cancer cell growth as measured by cell number, SW620; format: cell-based, human; conditions: Homo sapiens, SW-620, 48 h, Table 4;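 further: SW620 was included as a cell line with little or no EGFR or HER2/neu expression, in contrast to receptor-overexpressing lines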
# From the text: (§1) The cell lines were chosen since they overexpressed epidermal growth factor receptor (EGFR) (i.e. A431) or HER2/neu (SKBR3), or had little to no expression of the these receptors (SW620, LOX, MCF7).
# CX1 = experiment: Inhibition of cancer cell growth as measured by cell number, CX1; format: cell-based; conditions: Homo sapiens, read-out: IC50 CX1
# LS174T = experiment: Inhibition of cancer cell growth as measured by cell number, LS174T; format: cell-based; conditions: Homo sapiens
# CCL228 = experiment: Inhibition of cancer cell growth as measured by cell number, CCL228; format: cell-based; conditions: Homo sapiens, read-out: IC50 CCL228
# MCF7 = experiment: Inhibition of cancer cell growth as measured by cell number, MCF7; format: cell-based, human; conditions: Homo sapiens, MCF7, 48 h, Table 5;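 further: MCF7 was included as a line with little or no EGFR or HER2/neu expression, in contrast to the receptor-overexpressing lines of the panel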
# From the text: as §1
# T47D = experiment: Inhibition of cancer cell growth as measured by cell number, T47D; format: cell-based; conditions: Homo sapiens
# LOX = experiment: Inhibition of cancer cell growth as measured by cell number, LOX; format: cell-based, human; conditions: Homo sapiens, LOX, 48 h, Table 6;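 further: LOX cells served as a line with low or absent EGFR and HER2/neu expression, in contrast to receptor-overexpressing lines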
# From the text: as §1
# LNCAP = experiment: Inhibition of cancer cell growth as measured by cell number, LNCAP; format: cell-based; conditions: Homo sapiens
# SKBR3 = experiment: Inhibition of cancer cell growth as measured by cell number, SKBR3; format: cell-based, human; conditions: Homo sapiens, Table 7;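 further: SK-BR-3 cells were selected as a line overexpressing HER2/neu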
# From the text: as §1
# [1] = target: recombinant human MEK 1 (MAPKK) and recombinant human ERK2 (MAPK); experiment: Mitogen Activated Protein Kinase (MAPK) assay, two component coupled MEK 1 / ERK2; format: biochemical; conditions: separate entries for the same compound = evaluated more than one time;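 further: MEK 1-activated ERK2 phosphorylates MBP or Myc peptide with 33P-ATP, filter capture and scintillation counting, inhibitor preincubated with ERK2 30 min at 0 °C, inhibition relative to uninhibited control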
# SW948 = experiment: Inhibition of cancer cell growth as measured by cell number, SW948; format: cell-based; conditions: Homo sapiens, read-out: IC50 SW948
# LX1 = experiment: Inhibition of cancer cell growth as measured by cell number, LX1; format: cell-based; conditions: Homo sapiens, read-out: IC50 LX1
# A549 = experiment: Inhibition of cancer cell growth as measured by cell number, A549; format: cell-based; conditions: Homo sapiens, read-out: IC50 A549
# NEC = experiment: Inhibition of cancer cell growth as measured by cell number, NEC; format: cell-based; conditions: Homo sapiens, read-out: IC50 NEC
# PC3 = experiment: Inhibition of cancer cell growth as measured by cell number, PC3; format: cell-based; conditions: Homo sapiens, read-out: IC50 PC3
# CCRF-CFM = experiment: Inhibition of cancer cell growth as measured by cell number, CCRF-CFM; format: cell-based; conditions: Homo sapiens, read-out: IC50 CCRF-CFM
# HTB161 = experiment: Inhibition of cancer cell growth as measured by cell number, HTB161; format: cell-based; conditions: Homo sapiens, read-out: IC50 HTB161
# A27805 = experiment: Inhibition of cancer cell growth as measured by cell number, A27805; format: cell-based; conditions: Homo sapiens, read-out: IC50 A27805
# A2780DDP = experiment: Inhibition of cancer cell growth as measured by cell number, A2780DDP; format: cell-based; conditions: Homo sapiens, read-out: IC50 A2780DDP
# MIP = experiment: Inhibition of cancer cell growth as measured by cell number, MIP; format: cell-based; conditions: Homo sapiens; cell number, Sulforhodamine B, 48 hours exposure; Table 4; read-out: IC50 MIP
# COLO205 = experiment: Inhibition of cancer cell growth as measured by cell number, COLO205; format: cell-based; conditions: Homo sapiens, read-out: IC50 COLO205
# CACO2 = experiment: Inhibition of cancer cell growth as measured by cell number, CACO2; format: cell-based; conditions: Homo sapiens, read-out: IC50 CACO2
# HCT15 = experiment: Inhibition of cancer cell growth as measured by cell number, HCT15; format: cell-based; conditions: Homo sapiens, read-out: IC50 HCT15
# B7474 = experiment: Inhibition of cancer cell growth as measured by cell number, B7474; format: cell-based; conditions: Homo sapiens, read-out: IC50 B7474
# A431 = experiment: Inhibition of cancer cell growth as measured by cell number, A431; format: cell-based, human; conditions: Homo sapiens, A-431, 48 h, Table 6;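 further: human A431 line, picked because it overexpresses epidermal growth factor receptor (EGFR)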
# From the text: as §1
# DU145 = experiment: Inhibition of cancer cell growth as measured by cell number, DU145; format: cell-based; conditions: Homo sapiens, read-out: IC50 DU145
# HL60 = experiment: Inhibition of cancer cell growth as measured by cell number, HL60; format: cell-based; conditions: Homo sapiens, read-out: IC50 HL60
# [2] = target: T1, Kinase insert Domain containing Receptor (KDR: the catalytic domain of the VEGF receptor) (Homo sapiens, UniProt P35968); experiment: Inhibition of Kinase insert Domain containing Receptor (KDR); format: biochemical; conditions: pH 7.2; radioactive format; read-out: KDR IC50 (converted);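 further: KDR phosphorylating a Glu:Tyr 4:1 copolymer with P32- or P33-labelled ATP, Mg++ and vanadate, read as acid-insoluble radiolabel, compared with compound-free reaction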
# T1 construct: KDR: the catalytic domain of the VEGF receptor
# [3] = target: epidermal growth factor receptor kinase (Homo sapiens, UniProt P00533); experiment: biochemical
# [4] = read-out: IC50 SW620, cell number, Sulforhodamine B, 48 hours exposure
# [5] = read-out: IC50 MCF7, cell number, Sulforhodamine B, 48 hours exposure
# [6] = read-out: IC50 LOX, cell number, Sulforhodamine B, 48 hours exposure
# [7] = SK-BR-3, 48 h, read-out: IC50 SKBR3, cell number, Sulforhodamine B, 48 hours exposure
# [8] = cell number, Sulforhodamine B, 48 hours exposure, Table 4
# [9] = cell number, Sulforhodamine B, 48 hours exposure, Table 6
# T1 sequence (P35968 834-1162 limits assumed): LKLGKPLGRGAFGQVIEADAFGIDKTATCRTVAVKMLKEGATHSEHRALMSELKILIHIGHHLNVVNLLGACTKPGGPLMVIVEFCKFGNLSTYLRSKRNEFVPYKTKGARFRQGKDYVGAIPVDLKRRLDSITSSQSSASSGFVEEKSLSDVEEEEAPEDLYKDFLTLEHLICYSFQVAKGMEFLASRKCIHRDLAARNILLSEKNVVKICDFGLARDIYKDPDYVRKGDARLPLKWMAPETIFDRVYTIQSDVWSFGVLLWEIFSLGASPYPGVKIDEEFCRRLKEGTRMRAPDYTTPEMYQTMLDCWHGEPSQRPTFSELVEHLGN
# Chain of epidermal growth factor receptor kinase (P00533 25-1210): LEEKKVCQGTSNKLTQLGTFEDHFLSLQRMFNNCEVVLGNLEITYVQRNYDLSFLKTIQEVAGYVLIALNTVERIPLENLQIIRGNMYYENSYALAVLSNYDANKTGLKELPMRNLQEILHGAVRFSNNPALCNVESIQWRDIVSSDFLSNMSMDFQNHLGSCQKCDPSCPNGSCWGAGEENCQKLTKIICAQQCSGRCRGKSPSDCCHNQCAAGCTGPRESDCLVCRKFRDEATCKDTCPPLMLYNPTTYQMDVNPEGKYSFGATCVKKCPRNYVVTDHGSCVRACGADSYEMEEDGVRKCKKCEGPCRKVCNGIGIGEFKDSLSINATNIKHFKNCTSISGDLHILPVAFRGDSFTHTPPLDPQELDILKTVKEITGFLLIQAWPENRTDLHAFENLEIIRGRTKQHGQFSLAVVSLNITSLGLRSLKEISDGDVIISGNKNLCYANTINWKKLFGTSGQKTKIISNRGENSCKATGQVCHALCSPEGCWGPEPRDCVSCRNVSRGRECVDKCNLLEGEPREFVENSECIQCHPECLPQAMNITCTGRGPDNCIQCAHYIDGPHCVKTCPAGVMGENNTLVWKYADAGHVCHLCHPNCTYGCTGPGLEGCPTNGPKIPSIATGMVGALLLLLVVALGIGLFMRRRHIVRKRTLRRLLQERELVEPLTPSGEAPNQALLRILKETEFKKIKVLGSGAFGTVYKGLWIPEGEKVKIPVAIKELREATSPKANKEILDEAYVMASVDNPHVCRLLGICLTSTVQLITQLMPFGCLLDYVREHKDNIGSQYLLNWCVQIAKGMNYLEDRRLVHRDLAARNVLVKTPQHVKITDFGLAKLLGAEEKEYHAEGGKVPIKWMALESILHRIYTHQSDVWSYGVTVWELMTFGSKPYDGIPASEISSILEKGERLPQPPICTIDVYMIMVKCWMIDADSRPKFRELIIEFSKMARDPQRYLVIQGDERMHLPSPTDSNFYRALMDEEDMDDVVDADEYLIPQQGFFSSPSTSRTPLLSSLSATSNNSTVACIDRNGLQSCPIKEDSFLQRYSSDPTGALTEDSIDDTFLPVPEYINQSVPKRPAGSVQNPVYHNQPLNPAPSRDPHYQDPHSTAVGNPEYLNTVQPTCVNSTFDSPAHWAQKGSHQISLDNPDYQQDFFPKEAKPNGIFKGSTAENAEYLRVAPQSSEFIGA
smiles,measurement,setting,value
"COc1ccc(Nc2c(C#N)cnc3cc(OC)c(OC)cc23)cc1OC [Example 43, 4-[(3,4-Dimethoxyphenyl)amino]-6,7-dimethoxy-3-quinolinecarbonitrile]",IC50,SW620; [4],4.33 µg/mL
same,IC50,"CX1; CX-1, 48 h",3.43 µg/mL
same,IC50,"LS174T; 48 h, read-out: IC50 LS174T",4.22 µg/mL
same,IC50,CCL228; 48 h,2.56 µg/mL
same,IC50,MCF7; [5],5.83 µg/mL
same,IC50,"T47D; 48 h, read-out: IC50 T47D",4.5 µg/mL
same,IC50,LOX; [6],2.86 µg/mL
same,IC50,"LNCAP; 48 h, read-out: IC50 LNCAP",4.53 µg/mL
same,IC50,SKBR3; [7],5.19 µg/mL
same,IC50,[1],30 µM
"COc1cc2ncc(C#N)c(Nc3cccc(CO)c3)c2cc1OC [Example 48, 4-[(3-(hydroxymethyl)phenyl)amino]-6,7-dimethoxy-3-quinolinecarbonitrile]",IC50,SW620; [4],> 100 µg/mL
same,IC50,"CX1; CX-1, 48 h",59.2 µg/mL
same,IC50,"SW948; SW948, 48 h",> 100 µg/mL
same,IC50,CCL228; 48 h,> 100 µg/mL
same,IC50,MCF7; [5],79.3 µg/mL
same,IC50,"T47D; 48 h, read-out: IC50 T47D",> 100 µg/mL
same,IC50,"LX1; LX-1, 48 h",> 100 µg/mL
same,IC50,"A549; A549, 48 h",> 100 µg/mL
same,IC50,LOX; [6],47 µg/mL
same,IC50,NEC; 48 h,> 100 µg/mL
same,IC50,"PC3; PC-3, 48 h",> 100 µg/mL
same,IC50,"LNCAP; 48 h, read-out: IC50 LNCAP",40.6 µg/mL
same,IC50,CCRF-CFM; 48 h,> 100 µg/mL
same,IC50,SKBR3; [7],64.5 µg/mL
"COc1cc2ncc(C#N)c(Oc3cccc(Br)c3)c2cc1OC [Example 49, 4-(3-Bromophenoxy)-6,7-dimethoxy-3-quinolinecarbonitrile]",IC50,HTB161; 48 h,70.6 µg/mL
same,IC50,A27805; 48 h,34.8 µg/mL
same,IC50,A2780DDP; 48 h,51.8 µg/mL
same,IC50,MIP,> 100 µg/mL
same,IC50,SW620; [4],> 100 µg/mL
same,IC50,"COLO205; COLO 205, 48 h",88 µg/mL
same,IC50,"CX1; CX-1, 48 h",98.4 µg/mL
same,IC50,"CACO2; Caco-2, 48 h",42.1 µg/mL
same,IC50,"HCT15; HCT-15, 48 h",97.4 µg/mL
same,IC50,"LS174T; 48 h, read-out: IC50 LS174T",> 100 µg/mL
same,IC50,"SW948; SW948, 48 h",> 100 µg/mL
same,IC50,CCL228; 48 h,99 µg/mL
same,IC50,MCF7; [5],57.5 µg/mL
same,IC50,B7474; 48 h,87.1 µg/mL
same,IC50,"T47D; 48 h, read-out: IC50 T47D",71.2 µg/mL
same,IC50,"LX1; LX-1, 48 h",> 100 µg/mL
same,IC50,"A549; A549, 48 h",> 100 µg/mL
same,IC50,LOX; [6],55.1 µg/mL
same,IC50,"A431; read-out: IC50 A431, cell number, Sulforhodamine B, 48 hours exposure",100 µg/mL
same,IC50,NEC; 48 h,85.3 µg/mL
same,IC50,"DU145; DU-145, 48 h",79.8 µg/mL
same,IC50,"PC3; PC-3, 48 h",> 100 µg/mL
same,IC50,"LNCAP; 48 h, read-out: IC50 LNCAP",52.4 µg/mL
same,IC50,"HL60; HL-60, 48 h",48.4 µg/mL
same,IC50,CCRF-CFM; 48 h,> 100 µg/mL
same,IC50,SKBR3; [7],74.6 µg/mL
same,IC50,[2],> 77.9 µM
same,IC50,[1],> 100 µM
"COc1cc2ncc(C#N)c(Sc3ccc(Br)cc3)c2cc1OC [Example 50, 4-[(4-Bromophenyl)sulfanyl]-6,7-dimethoxy-3-quinolinecarbonitrile]",IC50,HTB161; [8],4.46 µg/mL
same,IC50,A27805; [8],4.68 µg/mL
same,IC50,A2780DDP; [8],6.42 µg/mL
same,IC50,MIP,7.35 µg/mL
same,IC50,"SW620; cell number, Sulforhodamine B, 48 hours exposure, read-out: IC50 SW620",32.9 µg/mL
same,IC50,"COLO205; COLO 205, cell number, Sulforhodamine B, 48 hours exposure, Table 4",28.5 µg/mL
same,IC50,"CX1; CX-1, cell number, Sulforhodamine B, 48 hours exposure, Table 4",8.72 µg/mL
same,IC50,"CACO2; Caco-2, cell number, Sulforhodamine B, 48 hours exposure, Table 5",4.89 µg/mL
same,IC50,"HCT15; HCT-15, cell number, Sulforhodamine B, 48 hours exposure, Table 5",8.54 µg/mL
same,IC50,"LS174T; cell number, Sulforhodamine B, 48 hours exposure, Table 5, read-out: IC50 LS174T",7.68 µg/mL
same,IC50,"SW948; SW948, cell number, Sulforhodamine B, 48 hours exposure, Table 5",17.9 µg/mL
same,IC50,"CCL228; cell number, Sulforhodamine B, 48 hours exposure, Table 5",6.79 µg/mL
same,IC50,"MCF7; cell number, Sulforhodamine B, 48 hours exposure, read-out: IC50 MCF7",7.14 µg/mL
same,IC50,B7474; [9],7.17 µg/mL
same,IC50,"T47D; cell number, Sulforhodamine B, 48 hours exposure, Table 6, read-out: IC50 T47D",5.42 µg/mL
same,IC50,"LX1; LX-1, cell number, Sulforhodamine B, 48 hours exposure, Table 6",7.21 µg/mL
same,IC50,"A549; A549, cell number, Sulforhodamine B, 48 hours exposure, Table 6",6.82 µg/mL
same,IC50,"LOX; cell number, Sulforhodamine B, 48 hours exposure, read-out: IC50 LOX",4.7 µg/mL
same,IC50,"A431; cell number, Sulforhodamine B, 48 hours exposure, read-out: IC50 A431",7.35 µg/mL
same,IC50,NEC; [9],6.89 µg/mL
same,IC50,"DU145; DU-145, cell number, Sulforhodamine B, 48 hours exposure, Table 7",5.6 µg/mL
same,IC50,"PC3; PC-3, cell number, Sulforhodamine B, 48 hours exposure, Table 7",8.53 µg/mL
same,IC50,"LNCAP; cell number, Sulforhodamine B, 48 hours exposure, Table 7, read-out: IC50 LNCAP",5.34 µg/mL
same,IC50,"HL60; HL-60, cell number, Sulforhodamine B, 48 hours exposure, Table 7",4.72 µg/mL
same,IC50,"CCRF-CFM; cell number, Sulforhodamine B, 48 hours exposure, Table 7",4.6 µg/mL
same,IC50,"SKBR3; SK-BR-3, cell number, Sulforhodamine B, 48 hours exposure, read-out: IC50 SKBR3",6.83 µg/mL
same,IC50,[1],> 100 µM
same,IC50,[3],5 µM
